What was measured:
yellow nutsedge = test: Test C postemergence; format: in vivo, Cyperus esculentus
How it was run: (§1)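 Seeds are planted in blended loam soil and sand and treated preemergence, while seedlings in a peat moss/vermiculite medium receive postemergence sprays at 2 to 18 cm height. All plants stay in the greenhouse for 13 to 15 days before visual comparison with controls on a 0–100 scale.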

chickweed = test: Test C postemergence; format: in vivo, Stellaria media; conditions: Stellaria media, post-emergence
How it was run: as §1

blackgrass = test: Test C postemergence; format: in vivo, Alopecurus myosuroides; conditions: Alopecurus myosuroides, post-emergence
How it was run: as §1

Italian ryegrass = test: Test C postemergence; format: in vivo, Lolium multiflorum
How it was run: as §1

johnsongrass = test: Test C postemergence; format: in vivo, Sorghum halepense
How it was run: as §1

corn = test: Test C postemergence; format: in vivo, Zea mays; conditions: Zea mays, post-emergence
How it was run: as §1

giant foxtail [1] = test: Test C postemergence; format: in vivo, Setaria faberii; conditions: Setaria faberi, post-emergence
How it was run: as §1

large (Lg) crabgrass = test: Test C postemergence; format: in vivo, Digitaria sanguinalis; conditions: Digitaria sanguinalis, post-emergence
How it was run: as §1

wild oat = test: Test C postemergence; format: in vivo, Avena fatua
How it was run: as §1

giant foxtail [2] = test: Test A preemergence; format: in vivo, Setaria faberii
How it was run: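 Pre- and postemergence greenhouse screen. Soil: loam + sand. Spray carrier: solvent mixture, non-phytotoxic, with surfactant. Post timing at 1–2 leaves, height 2–10 cm. Readout: visual injury on a 0–100 scale roughly 10 days after application, untreated plants as reference.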

waterhemp = test: Test C postemergence; format: in vivo, Amaranthus rudis
How it was run: as §1

[3] = 31 g ai/ha, postemergence, visual rating, scale 0 to 100 (0 no effect, 100 complete control), 13 to 15 days

**Q.** How did the “Nutsedge, Yellow plant response rating” value (yellow nutsedge; [3]) turn out when `N#Cc1cccc(Oc2ncc(Cl)cn2)c1-n1cc(C(F)F)cn1` [Compound 253, 3-(5-chloropyrimidin-2-yl)oxy-2-[4-(difluoromethyl)-1H-pyrazol-1-yl]benzonitrile] was run?
**A.** The value was 5.

**Q.** What about the pest or weed control at 16 g/ha (yellow nutsedge; Cyperus, post-emergence, 16 g ai/ha, postemergence, 0 is no effect, 100 is complete control, read-out: Plant response rating (0 to 100), Nutsedge, Yellow) of the same compound?
**A.** The pest or weed control at 16 g/ha was 5%.

**Q.** What about the pest or weed control at 125 g/ha (yellow nutsedge; Cyperus, post-emergence, 125 g ai/ha, postemergence, visual rating, scale 0 to 100 (0 no effect, 100 complete control), read-out: Plant response rating, Nutsedge, Yellow) of the same compound?
**A.** Its pest or weed control at 125 g/ha is 5%.

**Q.** And the pest or weed control at 62 g/ha (yellow nutsedge; Cyperus, post-emergence, Postemergence, 62 g ai/ha, scale 0 to 100 (0 no effect, 100 complete control), 13 to 15 days, read-out: Plant response rating, Nutsedge, Yellow)?
**A.** The pest or weed control at 62 g/ha was 5%.

**Q.** What about the pest or weed control at 16 g/ha (chickweed; 16 g ai/ha, postemergence, 0 is no effect, 100 is complete control, read-out: Plant response rating (0 to 100), Chickweed) of the same compound?
**A.** Its pest or weed control at 16 g/ha is 60%.

**Q.** And the pest or weed control at 31 g/ha (chickweed; 31 g ai/ha, postemergence, visual rating, scale 0 to 100 (0 no effect, 100 complete control), 13 to 15 days, read-out: Chickweed plant response rating)?
**A.** The pest or weed control at 31 g/ha was 70%.

**Q.** What about the pest or weed control at 125 g/ha (chickweed; 125 g ai/ha, postemergence, visual rating, scale 0 to 100 (0 no effect, 100 complete control), read-out: Plant response rating, Chickweed) of the same compound?
**A.** Its pest or weed control at 125 g/ha is 90%.

**Q.** What about the pest or weed control at 62 g/ha (chickweed; Postemergence, 62 g ai/ha, scale 0 to 100 (0 no effect, 100 complete control), 13 to 15 days, read-out: Plant response rating, Chickweed) of the same compound?
**A.** The pest or weed control at 62 g/ha was 90%.

**Q.** What about the pest or weed control at 16 g/ha (blackgrass; 16 g ai/ha, postemergence, 0 is no effect, 100 is complete control, read-out: Plant response rating (0 to 100), Blackgrass) of the same compound?
**A.** The pest or weed control at 16 g/ha was 0%.

**Q.** And the pest or weed control at 31 g/ha (blackgrass; 31 g ai/ha, postemergence, visual rating, scale 0 to 100 (0 no effect, 100 complete control), 13 to 15 days, read-out: Blackgrass plant response rating)?
**A.** The pest or weed control at 31 g/ha was 0%.

**Q.** And the pest or weed control at 125 g/ha (blackgrass; 125 g ai/ha, postemergence, visual rating, scale 0 to 100 (0 no effect, 100 complete control), read-out: Plant response rating, Blackgrass)?
**A.** The pest or weed control at 125 g/ha was 10%.

**Q.** And the pest or weed control at 62 g/ha (blackgrass; Postemergence, 62 g ai/ha, scale 0 to 100 (0 no effect, 100 complete control), 13 to 15 days, read-out: Plant response rating, Blackgrass)?
**A.** Its pest or weed control at 62 g/ha is 0%.

**Q.** What about the “Ryegrass, Italian plant response rating” value (Italian ryegrass; [3]) of the same compound?
**A.** Its value is 0.

**Q.** What about the pest or weed control at 16 g/ha (Italian ryegrass; Lolium multiflorum, post-emergence, 16 g ai/ha, postemergence, 0 is no effect, 100 is complete control, read-out: Plant response rating (0 to 100), Ryegrass, Italian) of the same compound?
**A.** Its pest or weed control at 16 g/ha is 0%.

**Q.** What about the pest or weed control at 125 g/ha (Italian ryegrass; Lolium multiflorum, post-emergence, 125 g ai/ha, postemergence, visual rating, scale 0 to 100 (0 no effect, 100 complete control), read-out: Plant response rating, Ryegrass, Italian) of the same compound?
**A.** The pest or weed control at 125 g/ha was 0%.

**Q.** And the pest or weed control at 62 g/ha (Italian ryegrass; Lolium multiflorum, post-emergence, Postemergence, 62 g ai/ha, scale 0 to 100 (0 no effect, 100 complete control), 13 to 15 days, read-out: Plant response rating, Ryegrass, Italian)?
**A.** Its pest or weed control at 62 g/ha is 0%.

**Q.** And the “Johnsongrass plant response rating” value (johnsongrass; [3])?
**A.** Its value is 5.

**Q.** And the pest or weed control at 16 g/ha (johnsongrass; Sorghum halepense, post-emergence, 16 g ai/ha, postemergence, 0 is no effect, 100 is complete control, read-out: Plant response rating (0 to 100), Johnsongrass)?
**A.** Its pest or weed control at 16 g/ha is 0%.

**Q.** What about the pest or weed control at 125 g/ha (johnsongrass; Sorghum halepense, post-emergence, 125 g ai/ha, postemergence, visual rating, scale 0 to 100 (0 no effect, 100 complete control), read-out: Plant response rating, Johnsongrass) of the same compound?
**A.** The pest or weed control at 125 g/ha was 10%.

**Q.** What about the pest or weed control at 62 g/ha (johnsongrass; Sorghum halepense, post-emergence, Postemergence, 62 g ai/ha, scale 0 to 100 (0 no effect, 100 complete control), 13 to 15 days, read-out: Plant response rating, Johnsongrass) of the same compound?
**A.** The pest or weed control at 62 g/ha was 5%.

**Q.** And the plant injury at 16 g/ha (corn; 16 g ai/ha, postemergence, 0 is no effect, 100 is complete control, read-out: Plant response rating (0 to 100), Corn)?
**A.** Its plant injury at 16 g/ha is 5%.

**Q.** What about the plant injury at 31 g/ha (corn; 31 g ai/ha, postemergence, visual rating, scale 0 to 100 (0 no effect, 100 complete control), 13 to 15 days, read-out: Corn plant response rating) of the same compound?
**A.** The plant injury at 31 g/ha was 5%.

**Q.** What about the Corn plant response rating (crop injury, 0 = no effect, 100 = complete kill) at 125 g/ha (corn; 125 g ai/ha, postemergence, visual rating, scale 0 to 100 (0 no effect, 100 complete control)) of the same compound?
**A.** The Corn plant response rating (crop injury, 0 = no effect, 100 = complete kill) at 125 g/ha was 25%.

**Q.** And the Corn plant response rating (crop injury, 0 = no effect, 100 = complete kill) at 62 g/ha (corn; Postemergence, 62 g ai/ha, scale 0 to 100 (0 no effect, 100 complete control), 13 to 15 days)?
**A.** Its Corn plant response rating (crop injury, 0 = no effect, 100 = complete kill) at 62 g/ha is 5%.

**Q.** And the pest or weed control at 16 g/ha (giant foxtail [1]; 16 g ai/ha, postemergence, 0 is no effect, 100 is complete control, read-out: Plant response rating (0 to 100), Foxtail, Giant)?
**A.** Its pest or weed control at 16 g/ha is 10%.

**Q.** What about the pest or weed control at 31 g/ha (giant foxtail [1]; 31 g ai/ha, postemergence, visual rating, scale 0 to 100 (0 no effect, 100 complete control), 13 to 15 days, read-out: Foxtail, Giant plant response rating) of the same compound?
**A.** The pest or weed control at 31 g/ha was 45%.

**Q.** And the pest or weed control at 125 g/ha (giant foxtail [1]; 125 g ai/ha, postemergence, visual rating, scale 0 to 100 (0 no effect, 100 complete control), read-out: Plant response rating, Foxtail, Giant)?
**A.** Its pest or weed control at 125 g/ha is 20%.

**Q.** And the pest or weed control at 62 g/ha (giant foxtail [1]; Postemergence, 62 g ai/ha, scale 0 to 100 (0 no effect, 100 complete control), 13 to 15 days, read-out: Plant response rating, Foxtail, Giant)?
**A.** The pest or weed control at 62 g/ha was 25%.

**Q.** What about the pest or weed control at 16 g/ha (large (Lg) crabgrass; 16 g ai/ha, postemergence, 0 is no effect, 100 is complete control, read-out: Plant response rating (0 to 100), Crabgrass, Large) of the same compound?
**A.** Its pest or weed control at 16 g/ha is 5%.

**Q.** What about the pest or weed control at 31 g/ha (large (Lg) crabgrass; 31 g ai/ha, postemergence, visual rating, scale 0 to 100 (0 no effect, 100 complete control), 13 to 15 days, read-out: Crabgrass, Large plant response rating) of the same compound?
**A.** Its pest or weed control at 31 g/ha is 5%.

**Q.** And the pest or weed control at 125 g/ha (large (Lg) crabgrass; 125 g ai/ha, postemergence, visual rating, scale 0 to 100 (0 no effect, 100 complete control), read-out: Plant response rating, Crabgrass, Large)?
**A.** Its pest or weed control at 125 g/ha is 20%.

**Q.** And the pest or weed control at 62 g/ha (large (Lg) crabgrass; Postemergence, 62 g ai/ha, scale 0 to 100 (0 no effect, 100 complete control), 13 to 15 days, read-out: Plant response rating, Crabgrass, Large)?
**A.** The pest or weed control at 62 g/ha was 15%.

**Q.** And the “Oat, Wild plant response rating” value (wild oat; [3])?
**A.** The value was 0.

**Q.** And the pest or weed control at 16 g/ha (wild oat; Avena fatua, post-emergence, 16 g ai/ha, postemergence, 0 is no effect, 100 is complete control, read-out: Plant response rating (0 to 100), Oat, Wild)?
**A.** Its pest or weed control at 16 g/ha is 0%.

**Q.** What about the pest or weed control at 125 g/ha (wild oat; Avena fatua, post-emergence, 125 g ai/ha, postemergence, visual rating, scale 0 to 100 (0 no effect, 100 complete control), read-out: Plant response rating, Oat, Wild) of the same compound?
**A.** The pest or weed control at 125 g/ha was 10%.

**Q.** And the pest or weed control at 62 g/ha (wild oat; Avena fatua, post-emergence, Postemergence, 62 g ai/ha, scale 0 to 100 (0 no effect, 100 complete control), 13 to 15 days, read-out: Plant response rating, Oat, Wild)?
**A.** Its pest or weed control at 62 g/ha is 10%.

**Q.** And the “Foxtail, Giant plant response rating (0 to 100 scale)” value (giant foxtail [2]; 125 g ai/ha)?
**A.** Its value is 100.

**Q.** What about the pest or weed control at 31 g/ha (giant foxtail [2]; Setaria faberi, pre-emergence, 240 h, 31 g ai/ha, 0 to 100 scale where 0 is no effect and 100 is complete control, visual, approximately 10 days, read-out: Plant response rating, Foxtail, Giant) of the same compound?
**A.** Its pest or weed control at 31 g/ha is 70%.

**Q.** What about the “Waterhemp plant response rating” value (waterhemp; [3]) of the same compound?
**A.** The value was 75.

**Q.** And the pest or weed control at 16 g/ha (waterhemp; Amaranthus tuberculatus, post-emergence, 16 g ai/ha, postemergence, 0 is no effect, 100 is complete control, read-out: Plant response rating (0 to 100), Waterhemp)?
**A.** The pest or weed control at 16 g/ha was 75%.

**Q.** What about the pest or weed control at 125 g/ha (waterhemp; Amaranthus tuberculatus, post-emergence, 125 g ai/ha, postemergence, visual rating, scale 0 to 100 (0 no effect, 100 complete control), read-out: Plant response rating, Waterhemp) of the same compound?
**A.** The pest or weed control at 125 g/ha was 85%.

**Q.** And the pest or weed control at 62 g/ha (waterhemp; Amaranthus tuberculatus, post-emergence, Postemergence, 62 g ai/ha, scale 0 to 100 (0 no effect, 100 complete control), 13 to 15 days, read-out: Plant response rating, Waterhemp)?
**A.** The pest or weed control at 62 g/ha was 80%.

— patent US9695155B2, “Herbicidal substituted pyrimidinyloxy benzene compounds” (E. I. DU PONT DE NEMOURS AND COMPANY, priority 2013, dated 2017)
